Literature values in US20070166273A1, “Skin treatment educational kit” (priority 2006, published 2007).

Legend:
CD-1 mice = conditions: 91-week dermal
mice [1] = conditions: 0.025 mg/kg/day topically to mice (0.1 times max human systemic dose)
hairless albino mice = conditions: concurrent exposure
pigmented mice = conditions: 0.05% tretinoin
[2] = Ames assay
mouse = conditions: in vivo mouse micronucleus assay
rats [3] = conditions: dermal
rats [4] = conditions: oral, rats (16 times the human topical dose)
rats [5] = conditions: oral
mice [6] = conditions: oral
hamsters = conditions: oral
subhuman primates = conditions: oral
Wistar rats [7] = conditions: orally or topically, Wistar rats (8 times max human systemic dose)
Wistar rats [8] = system: Wistar rats
[9] = system: New Zealand White rabbits; conditions: New Zealand White rabbits (3.3 times max human systemic dose)
[10] = dermally applied, 1.0 mg/kg/day (8 times max human systemic dose)
rabbits = conditions: 0.5 mg/kg/day (8 times max human systemic dose)
rats [11] = conditions: oral, 2.5 mg/kg/day (20 times max human systemic dose)

CC1=C(/C=C/C(C)=C/C=C/C(C)=C/C(=O)O)C(C)(C)CCC1 [tretinoin, all-trans-retinoic acid]
cutaneous squamous cell carcinomas and papillomas in the treatment area (CD-1 mice; 0.017% and 0.035% formulations (max systemic 0.5 and 1.0 mg/kg/day), female CD-1 mice): observed in some female mice
liver tumors (CD-1 mice; 0.017% and 0.035% formulations, male CD-1 mice): dose-related incidence
carcinogenic potential (mice [1]): no evidence of carcinogenic potential
tumorigenic potential of carcinogenic doses of UVB and UVA light (hairless albino mice): may enhance the tumorigenic potential
enhancement of photocarcinogenesis (pigmented mice): dark pigmentation did not overcome the enhancement of photocarcinogenesis
mutagenic potential [2]: negative
mutagenic potential (mouse): negative
sperm count and motility (rats [3]; 0.5 mg/kg/day, rats (4 times max human systemic dose)): slight (not statistically significant) decreases
number and percent of nonviable embryos (rats [3]; females treated with 0.25 mg/kg/day and above (2 times max human systemic dose)): slight (not statistically significant) increases
dose with decreased survival of neonates and growth retardation (rats [4]): > 2 mg/kg/day
teratogenicity (rats [5]): teratogenic
teratogenicity (mice [6]): teratogenic
teratogenicity (hamsters): teratogenic
teratogenicity (subhuman primates): teratogenic
teratogenic and fetotoxic dose (Wistar rats [7]): greater than 1 mg/kg/day
anomalies: humerus bent (Wistar rats [8]; 10 mg/kg/day topically applied): 6%
anomalies: humerus short (Wistar rats [8]; 10 mg/kg/day topically applied): 13%
anomalies: os parietal incompletely ossified (Wistar rats [8]; 10 mg/kg/day topically applied): 14%
dose with evidence for teratogenicity (shortened or kinked tail) (Wistar rats [8]; topical, Wistar rats (8 times max human systemic dose)): greater than 1 mg/kg/day
dose with increased incidence of domed head and hydrocephaly [9]: greater than 0.2 mg/kg/day
fetotoxicity and teratogenicity [10]: may be fetotoxic, but not overly teratogenic
fetotoxicity and teratogenicity (rabbits; dermally applied): may be fetotoxic, but not overly teratogenic
fetotoxicity (rabbits; topical): fetotoxic
fetotoxicity (rats [11]): fetotoxic, resulting in skeletal variations and increased intrauterine death
reports describing holoprosencephaly (human; of the thirty human cases): five
human cases of temporally associated congenital malformations (human; two decades of clinical use): Thirty
dose with fetal malformations (cynomolgus monkey; cynomolgus monkey): ≥ 10 mg/kg/day
embryolethality and abortion (cynomolgus monkey; cynomolgus monkey): dose-related increase
dose at which no fetal malformations were observed (cynomolgus monkey; cynomolgus monkey (83 times max human systemic dose)): 5 mg/kg/day
skeletal variations (cynomolgus monkey; cynomolgus monkey, all doses): increased skeletal variations were observed at all doses
